# Data as given in ChEMBL document CHEMBL3885861, “Open TG-GATES”.
# Species on record: Rattus norvegicus
# Assay: Open TG-GATES - Regimen: Daily Repeat
# Format: toxicity, organism-based, Sprague-Dawley
# Parameters: regimen Daily Repeat, gender Male, age 6 weeks
# Details: in vivo, po, 300 mg/kg, route gavage, dose level High; for APTT / Bas / Eos / Fbg / Hb / Ht / Lym / MCH / MCHC / MCV / Mono / Neu / PT / Plat / RBC / Ret / WBC: tissue Blood; for KIDNEY_L / KIDNEY_R / KIDNEY_TOTAL: tissue Kidney; for LIVER: tissue Liver; for A/G / ALP / ALT / AST / BUN / CRE / Ca / Cl / DBIL / GLC / IP / K / LDH / Na / PL / RALB / TBIL / TC / TG / TP / gamma-GTP: tissue Plasma
structure (smiles),measurement,setting,value
Clc1c(Cl)c(Cl)c(Cl)c(Cl)c1Cl [PERCHLOROBENZENE],TERMINAL_BW,"72 h, time 3 day",226 g
same,APTT,"72 h, time 3 day",15.9 s
same,Bas,"72 h, time 3 day",0%
same,Eos,"72 h, time 3 day",1.2%
same,Fbg,"72 h, time 3 day",225.4 mg/dL
same,Hb,"72 h, time 3 day",14.3 g/dL
same,Ht,"72 h, time 3 day",42.9%
same,Lym,"72 h, time 3 day",71.2%
same,MCH,"72 h, time 3 day",21.6 pg
same,MCHC,"72 h, time 3 day",33.2%
same,MCV,"72 h, time 3 day",65.2 fL
same,Mono,"72 h, time 3 day",10.6%
same,Neu,"72 h, time 3 day",16.8%
same,PT,"72 h, time 3 day",11 s
same,Plat,"72 h, time 3 day",98.4 x10_4/uL
same,RBC,"72 h, time 3 day",658.8 x10_4/ul
same,Ret,"72 h, time 3 day",8%
same,WBC,"72 h, time 3 day",106.3 x10_2/uL
same,KIDNEY_L,"72 h, time 3 day",1 g
same,KIDNEY_R,"72 h, time 3 day",1 g
same,KIDNEY_TOTAL,"72 h, time 3 day",2 g
same,LIVER,"72 h, time 3 day",13.7 g
same,A/G,"72 h, time 3 day",2.1
same,ALP,"72 h, time 3 day",720.6 IU/L
same,ALT,"72 h, time 3 day",41 IU/L
same,AST,"72 h, time 3 day",64.8 IU/L
same,BUN,"72 h, time 3 day",15 mg/dL
same,CRE,"72 h, time 3 day",0.6 mg/dL
same,Ca,"72 h, time 3 day",10.7 mg/dL
same,Cl,"72 h, time 3 day",105.8 meq/L
same,DBIL,"72 h, time 3 day",0.002 mg/dL
same,GLC,"72 h, time 3 day",184 mg/dL
same,IP,"72 h, time 3 day",8.3 mg/dL
same,K,"72 h, time 3 day",5.1 meq/L
same,LDH,"72 h, time 3 day",186 IU/L
same,Na,"72 h, time 3 day",138.8 meq/L
same,PL,"72 h, time 3 day",165.8 mg/dL
same,RALB,"72 h, time 3 day",3.9 g/dL
same,TBIL,"72 h, time 3 day",0.5 mg/dL
same,TC,"72 h, time 3 day",92.2 mg/dL
same,TG,"72 h, time 3 day",160.4 mg/dL
same,TP,"72 h, time 3 day",5.7 g/dL
same,gamma-GTP,"72 h, time 3 day",1.4 IU/L
same,TERMINAL_BW,"[…], time 7 day",262.7 g
same,TERMINAL_BW,"[…], time 14 day",310.5 g
same,TERMINAL_BW,"[…], time 28 day",358.3 g
same,APTT,"[…], time 7 day",16.1 s
same,Bas,"[…], time 7 day",0%
same,Eos,"[…], time 7 day",1%
same,Fbg,"[…], time 7 day",255.6 mg/dL
same,Hb,"[…], time 7 day",14.2 g/dL
same,Ht,"[…], time 7 day",43.1%
same,Lym,"[…], time 7 day",71.2%
same,MCH,"[…], time 7 day",21.5 pg
same,MCHC,"[…], time 7 day",33%
same,MCV,"[…], time 7 day",65 fL
same,Mono,"[…], time 7 day",9.4%
same,Neu,"[…], time 7 day",18.4%
same,PT,"[…], time 7 day",11.2 s
same,Plat,"[…], time 7 day",115 x10_4/uL
same,RBC,"[…], time 7 day",662 x10_4/ul
same,Ret,"[…], time 7 day",6.3%
same,WBC,"[…], time 7 day",117.1 x10_2/uL
same,APTT,"[…], time 14 day",20.8 s
same,Bas,"[…], time 14 day",0%
same,Eos,"[…], time 14 day",1.2%
same,Fbg,"[…], time 14 day",280.2 mg/dL
same,Hb,"[…], time 14 day",13.9 g/dL
same,Ht,"[…], time 14 day",41.6%
same,Lym,"[…], time 14 day",67.8%
same,MCH,"[…], time 14 day",20.7 pg
same,MCHC,"[…], time 14 day",33.3%
same,MCV,"[…], time 14 day",62.1 fL
same,Mono,"[…], time 14 day",14.8%
same,Neu,"[…], time 14 day",16.4%
same,PT,"[…], time 14 day",12.7 s
same,Plat,"[…], time 14 day",120.7 x10_4/uL
same,RBC,"[…], time 14 day",669.4 x10_4/ul
same,Ret,"[…], time 14 day",4.2%
same,WBC,"[…], time 14 day",140.9 x10_2/uL
same,APTT,"[…], time 28 day",22.1 s
same,Bas,"[…], time 28 day",0%
same,Eos,"[…], time 28 day",1.8%
same,Fbg,"[…], time 28 day",305.4 mg/dL
same,Hb,"[…], time 28 day",15.1 g/dL
same,Ht,"[…], time 28 day",45.5%
same,Lym,"[…], time 28 day",73.2%
same,MCH,"[…], time 28 day",19.4 pg
same,MCHC,"[…], time 28 day",33.2%
same,MCV,"[…], time 28 day",58.4 fL
same,Mono,"[…], time 28 day",11.8%
same,Neu,"[…], time 28 day",13.4%
same,PT,"[…], time 28 day",14 s
same,Plat,"[…], time 28 day",92 x10_4/uL
same,RBC,"[…], time 28 day",779.6 x10_4/ul
same,Ret,"[…], time 28 day",2.9%
same,WBC,"[…], time 28 day",161.2 x10_2/uL
same,KIDNEY_L,"[…], time 7 day",1.2 g
same,KIDNEY_R,"[…], time 7 day",1.3 g
same,KIDNEY_TOTAL,"[…], time 7 day",2.5 g
same,KIDNEY_L,"[…], time 14 day",1.4 g
same,KIDNEY_R,"[…], time 14 day",1.3 g
same,KIDNEY_TOTAL,"[…], time 14 day",2.7 g
same,KIDNEY_L,"[…], time 28 day",1.6 g
same,KIDNEY_R,"[…], time 28 day",1.6 g
same,KIDNEY_TOTAL,"[…], time 28 day",3.3 g
same,LIVER,"[…], time 7 day",18.4 g
same,LIVER,"[…], time 14 day",24.3 g
same,LIVER,"[…], time 28 day",31 g
same,A/G,"[…], time 7 day",2.1
same,ALP,"[…], time 7 day",604.6 IU/L
same,ALT,"[…], time 7 day",35.6 IU/L
same,AST,"[…], time 7 day",55.4 IU/L
same,BUN,"[…], time 7 day",15.8 mg/dL
same,CRE,"[…], time 7 day",0.7 mg/dL
same,Ca,"[…], time 7 day",10.9 mg/dL
same,Cl,"[…], time 7 day",104.4 meq/L
same,DBIL,"[…], time 7 day",0.01 mg/dL
same,GLC,"[…], time 7 day",173.4 mg/dL
same,IP,"[…], time 7 day",8.9 mg/dL
same,K,"[…], time 7 day",4.7 meq/L
same,LDH,"[…], time 7 day",178.4 IU/L
same,Na,"[…], time 7 day",138.8 meq/L
same,PL,"[…], time 7 day",205.8 mg/dL
same,RALB,"[…], time 7 day",4.2 g/dL
same,TBIL,"[…], time 7 day",0.4 mg/dL
same,TC,"[…], time 7 day",124.6 mg/dL
same,TG,"[…], time 7 day",147.2 mg/dL
same,TP,"[…], time 7 day",6.2 g/dL
same,gamma-GTP,"[…], time 7 day",2.6 IU/L
same,A/G,"[…], time 14 day",2
same,ALP,"[…], time 14 day",379.8 IU/L
same,ALT,"[…], time 14 day",32.8 IU/L
same,AST,"[…], time 14 day",51.6 IU/L
same,BUN,"[…], time 14 day",17.2 mg/dL
same,CRE,"[…], time 14 day",0.6 mg/dL
same,Ca,"[…], time 14 day",10.6 mg/dL
same,Cl,"[…], time 14 day",107.4 meq/L
same,DBIL,"[…], time 14 day",0.01 mg/dL
same,GLC,"[…], time 14 day",165.6 mg/dL
same,IP,"[…], time 14 day",8 mg/dL
same,K,"[…], time 14 day",4.6 meq/L
same,LDH,"[…], time 14 day",199.6 IU/L
same,Na,"[…], time 14 day",140.4 meq/L
same,PL,"[…], time 14 day",199.6 mg/dL
same,RALB,"[…], time 14 day",4.4 g/dL
same,TBIL,"[…], time 14 day",0.4 mg/dL
same,TC,"[…], time 14 day",124 mg/dL
same,TG,"[…], time 14 day",144.4 mg/dL
same,TP,"[…], time 14 day",6.8 g/dL
same,gamma-GTP,"[…], time 14 day",4 IU/L
same,A/G,"[…], time 28 day",1.8
same,ALP,"[…], time 28 day",213.2 IU/L
same,ALT,"[…], time 28 day",41.6 IU/L
same,AST,"[…], time 28 day",43.8 IU/L
same,BUN,"[…], time 28 day",19.2 mg/dL
same,CRE,"[…], time 28 day",0.7 mg/dL
same,Ca,"[…], time 28 day",10.8 mg/dL
same,Cl,"[…], time 28 day",105.4 meq/L
same,DBIL,"[…], time 28 day",0.038 mg/dL
same,GLC,"[…], time 28 day",151 mg/dL
same,IP,"[…], time 28 day",8.4 mg/dL
same,K,"[…], time 28 day",5 meq/L
same,LDH,"[…], time 28 day",163.2 IU/L
same,Na,"[…], time 28 day",143 meq/L
same,PL,"[…], time 28 day",175 mg/dL
same,RALB,"[…], time 28 day",4.7 g/dL
same,TBIL,"[…], time 28 day",0.3 mg/dL
same,TC,"[…], time 28 day",107.6 mg/dL
same,TG,"[…], time 28 day",174 mg/dL
same,TP,"[…], time 28 day",7.3 g/dL
same,gamma-GTP,"[…], time 28 day",7.8 IU/L
